For one data set, the system named is ovariectomized (OVX) rat. In words: OVX rat model, bone mineral density by DEXA. The data set is classed as in vivo. Also on record: increase in BMD in the femoral shaft compared to vehicle-treated OVX animals: unit not given here. The note with it: for BMD proximal tibia (18% bone loss in OVX animals): FIG. 6, SEQ ID NO: 19 20-320, SEQ ID NO: 33 5 nmol/kg; for BMD proximal tibia (18% bone loss in OVX animals) / BMD in lumbar vertebrae L1-L2 relative to vehicle-treated OVX and sham animals: s.c. 6 weeks; for BMD in lumbar vertebrae L1-L2 relative to vehicle-treated OVX and sham animals: FIG. 7; for BMD compared to vehicle-treated OVX animals: all doses; for increase in BMD in the femoral shaft compared to vehicle-treated OVX animals / BMD in the femoral shaft: FIG. 9; for BMD in the femoral shaft: site rich in cortical bone. The text has this:
The ovariectomiced(OVX) rat may be used to test the effect of the PTH analogues on osteopenia/osteoporosis in vivo. The OVX rat develop osteopenia due to ovarian hormone deficiency. Osteopenia can be detected as early as 14 days post OVX, increase for the next 100 days and then stabilized (Wronski T J et al., Calcif. Tissue Int., 43(3): 179-183, 1988). The OVX rat model is considered the “golden standard” by both authorities and industry as a model for osteoporosis (Peter C, Rodan G A. Preclinical safety profile of alendronate. Int j Clin Pract Suppl 1999; 101:3-8, and Stewart A F, Cain R L, Burr D B, Jacob D, Turner C H, Hock J M).
One hundred and seventy-eight female Fisher rats were used for the experiment. Initially the animals were housed in Macrolon type 3 cages (2 rats/cage) under controlled conditions (20° C., 55-85% humidity) following a 12:12-hrs light/dark cycle with light on at 6 am. The animals were fed ad libitum with standard Altromin No. 1324 diet (Chr. Petersen, Ringsted, Denmark). The animals had free access to drinking water (domestic quality tap water added citric acid to pH≈3). At the time of inclusion the animals were 6 months old.
The week before OVX the animals were stratified according to body weight into two groups that were subjected to either OVX (140 animals) or sham operation (38 animals). Rats were anaesthetized with Hypnorm-Dormicum and the ovariectomy was performed through a midline laparotomy. Sham-operated animals were subjected to midline laparotomy, and the ovaries were exposed but not removed (sham). This group served as an age matched non-osteoporotic control group. A microchip was implanted into each rat during surgery, in order to allow identification of the animals.
To allow osteopenia to develop before treatment start, animals were housed for 7 weeks (pre-treatment period) without pharmacological treatment. At the end of the pre-treatment period, sham- and OVX-operated rats were stratified according to bodyweight and divided into six groups of 13-20 animals each (Table 7). At this point, one OVX group (N=20) and one sham group (N=20) were sacrificed. These control groups established baseline levels of bone mineral density (BMD). Furthermore, samples were stored for possible later analysis of bone markers, bone strength, histomorphometry and μCT scans.
For the following 6 weeks one sham group and one OVX group were subjected to vehicle administration (40 mM sodium acetate, 45 mM histidine and 3.9% mannitol, pH 5.5, 300 mOsm/kg). Five OVX groups were treated with increasing doses of the cyclic PTH(1-17) analogue SEQ ID NO: 19. Another OVX group was treated with SEQ ID NO: 33 (Table 7). All drugs were given as s.c. injections. After 6 weeks of treatment the animals were sacrificed. Spine, tibia and femur were collected for analysis of BMD by DEXA-scan and bone samples were stored for later bone strength measurements.
Lumbar vertebrae (L4-L5-L6-S1), left femur and tibia were collected, cleaned, packed in saline moistened gaze in a tube and stored at −20° C. for later ex vivo bone strength measurements. Right femur and tibia as well as lumbar vertebrae (T13-L1-L2-L3) and caudal vertebrae (S2-S3-C1-C2-C3) were collected, cleaned and stored in 70% ethanol for analysis of bone mineral density (BMD) and possible later histomorphometry and/or μCT scanning.
Ex vivo BMD measurements were performed at the end of the study using a Lunar Piximus II densitometer (GE Healthcare, Chalfont St. Giles, UK) with a precision of 1.5%. Calibration of the instrument was performed with an aluminium/Lucite phantom.
Tibiae, femora and lumbar (L1-L2) and sacral/caudal (S3-C1) spine fragments were placed on the imaging positioning tray and scanned four times. All specimens were placed in a similar orientation for correct comparison. Regions of interest (ROI) were generated on the scans using the Piximus image analysis software provided with the instrument. […]

Another data set concerns the target CYP2D6 (Homo sapiens, UniProt P10635). In words: CYP2D6 inhibition in pooled human liver microsomes. The data set is classed as in vitro ADME. On the set-up: Pooled human liver microsomes (HLM, final concentration 0.05 mg protein/mL); tissue BD Biosciences 452161; host or cells: pooled human liver microsomes. In outline:
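Pooled HLM (0.05 mg/mL) in 0.1 M KPi pH 7.4 with 5 μM dextromethorphan and 10 μM test compound, preincubated 5 min at 37 °C, then started with NADPH-regenerating system for 5 min. Dextrorphan quantified by LC/MS/MS; activity expressed as % of vehicle; <70% considered significant.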
A general note: Microsomes from liver hold many membrane-bound enzymes, among them those of drug oxidation.

SMILES strings stand for the structures. Entries after “also recorded” stand apart in the source; their conditions may differ. Bridge positions count the residues as written; N and C are the ends. Square brackets hold non-standard residues; d marks the D form. Peptide text beside a SMILES is read from it. I, II: the chains in the order shown. hArg = N=C(N)NCCCC[C@H](N)C(=O)O; Ac5c = NC1(C(=O)O)CCCC1; Aib = CC(C)(N)C(=O)O

CYP2D6, sequence (P10635 whole entry): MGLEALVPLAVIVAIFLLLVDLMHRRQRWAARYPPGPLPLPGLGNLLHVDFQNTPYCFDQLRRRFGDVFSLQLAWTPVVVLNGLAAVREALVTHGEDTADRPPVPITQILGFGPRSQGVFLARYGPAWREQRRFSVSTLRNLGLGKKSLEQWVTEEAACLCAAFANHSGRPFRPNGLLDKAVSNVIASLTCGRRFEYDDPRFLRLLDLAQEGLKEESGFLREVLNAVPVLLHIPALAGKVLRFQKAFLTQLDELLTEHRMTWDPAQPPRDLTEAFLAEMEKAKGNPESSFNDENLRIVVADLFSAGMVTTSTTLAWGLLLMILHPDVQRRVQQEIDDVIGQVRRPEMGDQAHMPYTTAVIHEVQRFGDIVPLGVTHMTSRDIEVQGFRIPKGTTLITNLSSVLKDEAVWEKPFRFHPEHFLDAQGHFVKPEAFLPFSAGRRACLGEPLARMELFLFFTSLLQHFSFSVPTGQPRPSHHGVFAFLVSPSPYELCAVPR

On to `CC[C@H](C)[C@H](NC(=O)[C@H](CCC(=O)O)NC(=O)C(C)(C)NC(=O)[C@@H](NC(=O)C1(N)CCCC1)C(C)C)C(=O)N[C@@H](CCC(N)=O)C(=O)N[C@@H](CC(C)C)C(=O)N[C@@H](CC(C)C)C(=O)N[C@@H](Cc1c[nH]cn1)C(=O)N[C@@H](CCC(N)=O)C(=O)N[C@@H](CCCCNC(=N)N)C(=O)N[C@@H](C)C(=O)N[C@H]1CCCCNC(=O)C[C@@H](C(N)=O)NC(=O)[C@H](CC(N)=O)NC(=O)[C@H](CC(C)C)NC(=O)[C@H](Cc2c[nH]c3ccccc23)NC1=O` [SEQ ID NO: 19, H-Ac5c-Val-Aib-Glu-Ile-Gln-Leu-Leu-His-Gln-Har-Ala-Lys( )-Trp-Leu-Asn-Asp( )-NH2] (H-[Ac5c]V[Aib]EIQLLHQ[hArg]AKWLND-NH2; lactam 13-17), for which the “bone mineral densities at the lowest dose” value with ovariectomized (OVX) rat (20 nmol/kg/d) is “at least normalization”. The “bone mineral density versus vehicle-treated ovariectomized rats, regardless of site” value in the data set with ovariectomized (OVX) rat (20 nmol/kg/d to 320 nmol/kg/d s.c., 6 weeks) is recorded as “significantly higher bone mineral density”. In addition, in the data set on ovariectomized (OVX) rat (OVX rats), the “BMD proximal tibia (18% bone loss in OVX animals)” value was “completely reversed”; the “BMD in lumbar vertebrae L1-L2 relative to vehicle-treated OVX and sham animals” value is on record as “improved”; the “bone-anabolic activity in cortical and trabecular bone” value is recorded as “showed bone-anabolic activity”. Moreover, the “BMD compared to vehicle-treated OVX animals” value in the data set with ovariectomized (OVX) rat (FIG. 8) is given as “significantly increased”. Also, the “BMD over sham control levels” value in the data set with ovariectomized (OVX) rat (FIG. 8, doses higher than 20 nmol/kg/d) is “significantly increased over sham control levels”. Also, in the data set with ovariectomized (OVX) rat, the “increase in BMD in the femoral shaft compared to vehicle-treated OVX animals” value is recorded as “about 81” and the “BMD in the femoral shaft” value was “improved”. Also, the “bone mineral density versus vehicle-treated sham-operated rats” value in the data set on ovariectomized (OVX) rat (doses greater than 20 nmol/kg/d) is “bone mineral densities higher than in vehicle-treated sham-operated rats”. Further, the “effect on CYP2D6 activity in words” value at CYP2D6 is listed as “absence of any inhibitory effect on CYP2D6 activity”. Further, at CYP2D6 (10 μM compound, dextrorphan formation rate), the “CYP2D6 activity (% of vehicle)” value is recorded as 90 % of vehicle.

As for `CC[C@H](C)[C@H](NC(=O)[C@H](CCC(=O)O)NC(=O)C(C)(C)NC(=O)[C@@H](NC(=O)C1(N)CCCC1)C(C)C)C(=O)N[C@@H](CCC(N)=O)C(=O)N[C@@H](CC(C)C)C(=O)N[C@@H](CCSC)C(=O)N[C@@H](Cc1c[nH]cn1)C(=O)N[C@@H](CCC(N)=O)C(=O)N[C@@H](CCCCNC(=N)N)C(=O)N[C@@H](C)C(=O)N[C@H]1CCCCNC(=O)C[C@@H](C(N)=O)NC(=O)[C@H](CC(C)C)NC(=O)[C@H](Cc2c[nH]c3ccccc23)NC(=O)[C@@H](NC(=O)[C@H](C)NC(=O)[C@H](CCCCNC(=N)N)NC(=O)[C@H](CCC(N)=O)NC(=O)[C@H](Cc2c[nH]cn2)NC(=O)[C@H](CCSC)NC(=O)[C@H](CC(C)C)NC(=O)[C@H](CCC(N)=O)NC(=O)[C@@H](NC(=O)[C@H](CCC(=O)O)NC(=O)C(C)(C)NC(=O)[C@@H](NC(=O)C2(N)CCCC2)C(C)C)[C@@H](C)CC)CCCCNC(=O)C[C@@H](C(N)=O)NC(=O)[C@H](CC(C)C)NC(=O)[C@H](Cc2c[nH]c3ccccc23)NC1=O` [SEQ ID NO: 33, (H-Ac5c-Val-Aib-Glu-Ile-Gln-Leu-Met-His-Gln-Har-Ala-Lys( )-Trp-Leu-Asp( )-NH2)2] (I: H-[Ac5c]V[Aib]EIQLMHQ[hArg]AKWLD-NH2 / II: H-[Ac5c]V[Aib]EIQLMHQ[hArg]AKWLD-NH2; amide I:13-II:16, I:16-II:13 (inferred)), in the data set with ovariectomized (OVX) rat (5 nmol/kg/d s.c., 6 weeks), the “bone mineral density versus vehicle-treated ovariectomized rats, all sites tested” value is listed as “significant increases; also recorded: significantly increased”. In addition, in the data set on ovariectomized (OVX) rat (OVX rats), the “BMD proximal tibia (18% bone loss in OVX animals)” value is “completely reversed”; the “BMD in lumbar vertebrae L1-L2 relative to vehicle-treated OVX and sham animals” value is “improved”. For the same compound, in the data set on ovariectomized (OVX) rat (FIG. 8), the “BMD compared to vehicle-treated OVX animals” value is “significantly increased”. Moreover, in the data set on ovariectomized (OVX) rat, the “increase in BMD in the femoral shaft compared to vehicle-treated OVX animals” value was “about 81” and the “BMD in the femoral shaft” value is listed as “improved”.

Source of the values: patent US20100048462A1, “TRUNCATED PTH PEPTIDES WITH A CYCLIC CONFORMATION” (Zealand Pharma A/S, priority 2006, published 2010).
